Laboratory results published in patent US9938238B2, “Anti-auxin compounds” (priority 2015, dated 2018).
“Also recorded” adds a separate entry of the source.

Columns and labels:
[1] = system: Col-0 wt seedlings; assay: Seedling triple response of ethylene-treated etiolated Col-0 wt seedlings; assay type: in vivo, Arabidopsis
Method: (§1) For screening for chemicals that reduce ethylene response, Arabidopsis ctr1-3 seeds were planted on a microtiter plate containing PNS media in the presence of individual chemicals (50 μM concentration of each) from the Microsource Spectrum Collection. Seedlings were grown in the dark for 4 d after which they were scored for manifestation of the ethylene responsive triple response. For all other growth experiments, seedlings were planted on PNS media supplemented with the relevant chemical (Deslauriers and Larsen, 2010). For conditions requiring pamoic acid, media was supplemented with Pamoic acid disodium salt (Sigma Life Science, St. Louis, Mo.). Measurement of ethylene production was conducted as previously described (Deslauriers and Larsen, 2010).
For Col-0 wt, seedlings were grown in either the presence or absence of 5 μM AgNO3, an inhibitor of ethylene perception, or 100 μL L^−1 ethylene, which is a concentration that results in maximal response in etiolated seedlings. […] It should be noted that the phenotype of PA-treated seedlings in the presence of saturating ethylene is strikingly similar to ethylene-treated wei8 and tart loss-of-function mutants, which are deficient in auxin biosynthesis (Stepanova et al., 2008).

[2] = system: ctr1-3 seedlings; assay: Seedling triple response of constitutive ethylene response mutant ctr1-3 (library screen and follow-up); assay type: in vivo, Arabidopsis
Method: as §1
A chemical library screen was performed in which etiolated seedlings of the constitutive ethylene response mutant, ctr1-3, were grown in air for 4 d in the presence of chemicals from the Microsource Spectrum Collection, a bioactive and natural compound library consisting of 2000 different compounds. ctr1-3 seedlings were scored for presentation of the ethylene regulated seedling triple response, consisting of severe hypocotyl and root shortening and exaggerated apical hook formation.

[3] = system: etiolated Col-0 wt seedlings; assay: Measurement of ethylene biosynthesis by gas chromatography; assay type: in vivo, Arabidopsis
Method: as §1

[4] = system: Col-0 wt seedlings; assay: Root length dose response; assay type: in vivo, Arabidopsis
Method: as §1
Auxin is required for normal root growth since at physiological concentrations it promotes cell elongation.

[5] = system: Col-0 wt seedlings; assay: Blockage of auxin dependent inhibition of root growth; assay type: in vivo, Arabidopsis
Method: For screening for chemicals that reduce ethylene response, Arabidopsis ctr1-3 seeds were planted on a microtiter plate containing PNS media in the presence of individual chemicals (50 μM concentration of each) from the Microsource Spectrum Collection. Seedlings were grown in the dark for 4 d after which they were scored for manifestation of the ethylene responsive triple response. For all other growth experiments, seedlings were planted on PNS media supplemented with the relevant chemical (Deslauriers and Larsen, 2010). For conditions requiring pamoic acid, media was supplemented with Pamoic acid disodium salt (Sigma Life Science, St. Louis, Mo.). Measurement of ethylene production was conducted as previously described (Deslauriers and Larsen, 2010). […]

[6] = system: Col-0 wt seedlings; assay: Root gravitropism on vertical agar plates; assay type: in vivo, Arabidopsis
[7] = system: DR5::GUS; assay: GUS analysis of auxin responsive DR5::GUS reporter line; assay type: in vivo, Arabidopsis
Method: GUS analysis of DR5::GUS lines was performed as previously described (Ni et al., 2001).
Auxin responsiveness has also been assessed using the Arabidopsis DR5::GUS transgenic line in which several auxin response elements are fused upstream of the GUS reporter gene (Ni et al., 2001). Normally, treatment of DR5::GUS lines with exogenous auxin leads to increased GUS levels, which can be visualized through accumulation of blue color upon adding X-Gluc.

[8] = system: Col-0 wt, tir1-1, afb1-5, afb2-3, afb3-5, afb4-1 seedlings; assay: Hypocotyl and root elongation of auxin receptor loss-of-function mutants; assay type: in vivo, Arabidopsis; settings: tir1-1, increasing range of Tolmetin
Description: Loss of proper auxin signaling as in the dominant shy2-2 mutant (Tian et al., 2003), which fails to have proper turnover of the IAA3 repressor of auxin response, leads to severe hypocotyl shortening for etiolated seedlings (Robles et al., 2012). […] It was of interest to determine what effect PA might have on hypocotyl and root elongation for loss-of-function mutants representing members of the Arabidopsis family of auxin receptors. It was predicted that mutants for receptors with a more prominent role in auxin dependent maintenance of organ elongation would be more severely affected by PA treatment due to the additive effect of the loss-of-function mutation with the effect of this anti-auxinic compound.
For analysis of the role of the various receptors in hypocotyl elongation, Col-0 wt and loss-of-function mutants for all of the auxin receptors (Si-Ammour et al., 2011) except AFB5 were grown for 4 d in the dark in the absence or presence of 30 μM PA on media supplemented with 5 μM AgNO3, which was included to eliminate the negative effect of ethylene on hypocotyl elongation.
A similar result was found for tir1-1 roots. For this experiment, seedlings were grown in the dark for 4 d in the absence or presence of 30 μM PA after which root length was measured. […] This was confirmed by analysis of growth of Col-0 wt and tir1-1 roots across a range of PA concentrations.

[9] = biological target: T1, TIR1-IAA7 complex (Arabidopsis thaliana, UniProt Q570C0); assay: In vitro assembly of the TIR1-IAA7 complex in the presence of auxin; assay type: biochemical
T1 sequence (Q570C0 1-594): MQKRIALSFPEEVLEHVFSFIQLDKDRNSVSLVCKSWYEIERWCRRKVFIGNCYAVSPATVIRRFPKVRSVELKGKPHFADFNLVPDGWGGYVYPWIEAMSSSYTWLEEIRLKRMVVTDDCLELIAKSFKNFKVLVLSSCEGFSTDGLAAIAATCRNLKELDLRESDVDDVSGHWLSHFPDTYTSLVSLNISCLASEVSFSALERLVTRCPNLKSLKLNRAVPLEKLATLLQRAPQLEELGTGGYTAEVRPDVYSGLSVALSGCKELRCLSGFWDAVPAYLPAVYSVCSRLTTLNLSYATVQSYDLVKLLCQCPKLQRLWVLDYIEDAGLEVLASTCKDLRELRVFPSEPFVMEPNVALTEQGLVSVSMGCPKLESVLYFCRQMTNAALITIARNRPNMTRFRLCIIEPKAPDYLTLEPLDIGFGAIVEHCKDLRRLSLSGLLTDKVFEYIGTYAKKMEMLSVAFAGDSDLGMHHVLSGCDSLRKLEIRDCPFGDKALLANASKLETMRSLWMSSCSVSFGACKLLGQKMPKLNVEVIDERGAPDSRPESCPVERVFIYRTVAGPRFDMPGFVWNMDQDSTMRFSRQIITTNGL
Description: It should be noted that based on our growth analysis with various loss-of-function mutants for auxin receptors, it is likely that one or more of the other receptors are affected to a greater extent than TIR1 by each of these chemicals.

[10] = etiolated ctr1-3 in air, 4 d, 50 μM of each chemical
[11] = 5 days in the light, 50 micromolar Tolmetin (FIG. 7)

Cc1ccc(C(=O)c2ccc(CC(=O)O)n2C)cc1 [Tolmetin]
seedling length independent of ethylene ([1]; Col-0 wt with 5 μM AgNO3, 4 d dark, 10 μM PA or Tolmetin up to 30 μM): negative effect was not seen | manifestation of the ethylene dependent seedling triple response (loss of apical hook formation) ([1]; Tolmetin 20-100 micromolar, Col-0 wt treated with saturating ethylene (FIG. 1)): partially blocks | apical hook formation ([1]; etiolated Col-0 wt, 100 μL L−1 (saturating) ethylene, 4 d dark, 10 μM PA or Tolmetin up to 30 μM): prevent apical hook formation; also recorded: nearly complete loss of apical hook formation | root length / organ specificity of effect in ethylene treated seedlings ([1]; etiolated Col-0 wt, saturating ethylene, 4 d dark, 10 μM PA or Tolmetin up to 30 μM): specific to hypocotyls | ethylene-dependent root growth inhibition ([2]; ctr1-3, 10 μM PA or 30 micromolar Tolmetin): did not prevent the severe root growth inhibition; also recorded: does not affect ethylene-dependent root growth inhibition | root growth of light grown ctr1-3 ([2]; ctr1-3 grown in the light, increasing concentrations of Tolmetin (FIG. 3)): No positive effect on root growth was observed | apical hook formation ([2]; dark grown ctr1-3, 10 μM PA or 30 μM Tolmetin): prevent apical hook formation; also recorded: fully eliminated apical hook formation; also recorded: nearly complete loss of apical hook formation | apical hook formation in chemical library screen [2, 10]: blocked apical hook formation | root length in chemical library screen [2, 10]: measurably longer roots | ethylene biosynthesis ([3]; 10 μM PA or 30 μM Tolmetin, 96 h, ethylene generated in the last 18 h): no measurable effect on ethylene biosynthesis | ethylene biosynthesis ([3]; 50 micromolar Tolmetin, 4 days in the dark (FIG. 4)): does not reduce ethylene biosynthesis | root length at increasing concentrations ([4]; Col-0 wt, 7 d, increasing concentrations, versus untreated control roots): severe inhibition of root length | root growth at low concentrations ([4]; Col-0 wt, 7 d, low concentrations): stimulatory effect | root length ([4]; light, increasing concentrations of Tolmetin, 5 days (FIG. 5)): inhibitory to root growth at high concentrations | inhibitory effect of Tolmetin on root length on addition of IAA ([5]; 5 days, 50 micromolar Tolmetin plus 300 nM IAA (FIG. 6)): almost completely overcome | root length, Tolmetin alone ([5]; 5 days, 50 micromolar Tolmetin, 0 nM IAA (FIG. 6)): significant root growth inhibition | root length, anti-auxin alone ([5]; light, 7 d, 30 μM PA or 50 μM Tolmetin alone versus untreated roots): significantly inhibited | inhibitory effects of exogenous auxin on root length ([5]; light, 7 d, 30 μM PA with 150 nM NAA, 50 μM Tolmetin with 300 nM IAA): greatly reduced the inhibitory effects of exogenous auxin | direction of root growth (gravitropism) ([6]; 4 d, vertical agar plates, 30 μM PA or 50 μM Tolmetin): grew in a random manner that was independent of gravity | direction of root growth (gravitropism) [6, 11]: agravitropic root growth | root hairs [6, 11]: completely lacked root hairs | dark color (GUS) in the absence of exogenous auxin ([7]; 0 versus 100 micromolar Tolmetin, no exogenous auxin (FIG. 8)): comparable level of dark color | staining / auxin dependent lateral root formation ([7]; 100 μM Tolmetin, 750 nM IAA (FIG. 8)): prevented staining in the area of lateral root development; also recorded: completely blocks auxin dependent lateral root formation | auxin dependent accumulation of GUS in root tips ([7]; 100 μM Tolmetin, exposure to IAA): blocked auxin dependent accumulation of GUS in root tips | root growth sensitivity of tir1-1 [8]: hypersensitive | blockage of assembly of the TIR1-IAA7 complex [9]: not been possible to demonstrate
